One block for each substance: values may come before it.
Assays:
SHSY-5Y cells = experiment: Immunofluorescence of 3-nitrotyrosine and synaptophysin in SHANK3-silenced SHSY-5Y cells; type: cell-based, human
Procedure: A cell culture model for ASD was developed by silencing SHANK3 with an siRNA (5-3 RNA)-CGAUGAUAAGCAGUUUGCAAAGCUU (SEQ ID NO: 3) in the neuronal cell line SHSY-5Y cells, followed by silencing with of nNOS using the following RNA (5-3) CCUUGUCCAACAUGCUCCUAGAGAU (SEQ ID NO: 4).
SHSY-5Y Cells (with or without treatment) were fixed post treatment in 4% paraformaldehyde, incubated with the Primary rabbit MAP2+ primary mouse monoclonal 3-nitrotyrosine (FIGS. 9A-B) and with Primary rabbit monoclonal synaptophysin+primary mouse Map2 (FIGS. 9C-D). Thereafter, cells were incubated with anti-mouse secondary Alexa fluor488 (green)/594 (red), and anti-rabbit secondary Alexa fluor 488 (green)/594 (red), conjugated secondary antibodies. After washing, cells were mounted with DAPI (Blue). The images were acquired using a confocal microscope. Each group contained nine independent sets of experiments (initial cell seed number—about 10^6).
To support the effect of nucleic acid silencing on a SHANK3 silenced background, the present inventors applied siRNA to nNOS on […] SHSY-5Y Cells.

C57BL/6 wild-type mice [1] = experiment: Marble burying test, SNAP-treated wild-type mice; type: in vivo, mouse; conditions: SNAP IP 20 mg/kg/day for 10 days; vs WT
Procedure: (§1) Behavioral testing started after 2 hours of treatment.
Marble Burying test (see, FIG. 4D): The marble-burying assay is a tool for assessing either anxiety-like and/or repetitive-like behaviors in mice. Subjects were tested in a regular clean cage (28 cm long×18 cm wide×12 cm high) with 3 cm of fresh bedding. The subject was first placed in the empty cage for a 5-min habituation. It was then temporary placed in an empty clean cage while 20 dark blue glass marbles (15 mm in diameter) were positioned over the bedding equidistant in a 4×5 arrangement to cover the whole cage surface. The subject was then returned in the test cage and allowed to explore and bury the marbles during a 15-min session that was videotaped. At the end of the session the subject was removed and the number of marbles buried (50% marble covered by bedding material) was recorded.
A marble burying test (as shown in FIG. 4D) was utilized as an indication for repetitive behaviors and restricted interests.

C57BL/6 wild-type mice [2] = experiment: Elevated plus maze test, SNAP-treated wild-type mice; type: in vivo, mouse
Procedure: as §1
Elevated plus maze test (see, FIG. 4C): The elevated plus-maze consisted of four arms (30×5 cm), two open, and the other two closed. The platform was made of white plexiglass. The apparatus was elevated 45 cm above the floor. The test, described in, was initiated by placing the mouse on the central platform of the maze, facing one of the open arms, and letting it move freely. Each session lasted 5 min. The time spent in the close and open arms was recorded.
An elevated plus maze test (see, FIG. 4C) was performed to evaluate the anxiety-like behaviors among the mice, typically the anxiety quantified as the time spent in the closed arms.

C57BL/6 wild-type mice [3] = experiment: Novel object recognition test (NOR), SNAP-treated wild-type mice; type: in vivo, mouse
Procedure: as §1
Novel object recognition (see, FIG. 4A): The novel object test for object recognition and memory takes place in a white open field arena (45×45 cm). The test involves a set of two unique novel objects, each about the size of a mouse, constructed from two different materials and non-uniform in shape. The test consisted of one 10-minute habituation session, a 5-minute familiarization session and a 5-minute recognition test, each video tracked (Noldus Ethovision). During the habituation, animals were allowed to freely explore an empty open field. At the end of the session, they were shifted from the open field to a place in a temporary clean holding cage for about 2 minutes. Two identical objects were placed on the median line at 10 cm from each wall and the animal was returned to the open field and allowed to explore the objects for 5 minutes before being returned to its home cage. Next day, one familiar object and one novel object were placed in the open field to the location where the identical objects were placed during the familiarization session and the mouse was allowed to explore them for a 5-minute recognition test. […] Familiarization and recognition sessions were scored for total time spent investigating each object, the number of object interactions and the latency of the first object interaction. […]

C57BL/6 wild-type mice [4] = experiment: Three-chambered sociability test, SNAP-treated wild-type mice; type: in vivo, mouse
Procedure: as §1
Three-chambered sociability test (see, FIG. 4B): Sociability and preference for social novelty and social recognition were tested in a three-chambered apparatus. The subjected mouse was first placed in the central, neutral chamber and allowed to explore for 10 minutes with all the doors closed. Next, doors were opened and the mouse was allowed to freely explore the other two empty chambers (1 and 2) for an additional 10 minutes. Lack of side preference was confirmed during this habituation.
Two cylindrical wire cages were placed, one in chamber 1 and the other in chamber 2. For the sociability test, the test animal was introduced to the middle chamber and allowed to adjust for 5 minutes. Then, an unfamiliar mouse was introduced into a wire cage in one of the side-chambers, and the other side-chamber remained empty. The time spent by the test mouse exploring the wire cage with an unfamiliar mouse inside was recorded for 5 minutes.
Next, to examine social memory, novel mice is introduced to the empty cage and the tested mice is examined whether they are interested in the novel mice compared to the familiar.
S-nitroso-N-acetylpenicillamines (SNAP), is an NO donor that increases the NO availability, subsequently leading to nitrosative stress and aberrant SNO signaling. […] To examine the potential effect of SNAP administration on mice behaviors, a novel object recognition test (NOR) and sociability test were performed (See, FIGS. 4A-B), and the obtained data are presented in FIGS. 2A-B, respectively.
A three-chamber sociability test was conducted as in Example 2 (see also FIG. 4B), to evaluate the interest of the mice to engage in social interaction with a stranger mouse. Generally, the mice prefer to spend more time with another mouse (sociability), and the mice have the tendency to investigate a novel intruder more than a familiar one (social novelty). […]

[5] = SNAP IP 20 mg/kg/day for 7 days, wild-type mice vs control group
[6] = SNAP IP 20 mg/kg/day for 10 days, C57BL/6 WT mice

Substance: SHANK3 si-RNA: siRNA CGAUGAUAAGCAGUUUGCAAAGCUU (SEQ ID NO: 3) silencing SHANK3 (CGAUGAUAAGCAGUUUGCAAAGCUU; listed as RNA, chemistry not given here)
synaptophysin expression (immunofluorescence) (SHSY-5Y cells; SHSY-5Y cells treated with SHANK3 si-RNA alone): downregulated

solubility in DMSO (Solubility in DMSO): 20 mg/mL
Substance: S-nitroso-N-acetylpenicillamines [SNAP]
number of marbles buried (C57BL/6 wild-type mice [1]): buried significantly less marbles
time in the closed arms (elevated plus maze) (C57BL/6 wild-type mice [2]; SNAP IP 20 mg/kg/day for 10 days, vs WT group): spent significantly more time in the closed arms compared to WT group
time spent in the open arms (elevated plus maze) (C57BL/6 wild-type mice [2]; SNAP i.p. 20 mg/kg daily for 10 days, vs WT): significantly decreased time in the open arms
preference for the novel object (NOR test) (C57BL/6 wild-type mice [3]; [5]): failed to display a preference for the novel object
preference for the novel object (NOR test) (C57BL/6 wild-type mice [3]; [6]): failed to display a preference for the novel object
preference to engage in social interaction (sociability test) (C57BL/6 wild-type mice [4]; [5]): did not exhibit any preference to engage in social interaction
preference for novel mouse (S2) vs familiar (S1) (second session, social novelty) (C57BL/6 wild-type mice [4]; [6]): did not exhibit any significant preference to engage in social interaction with the mice
time interacting with stranger mouse vs empty cage (first session, sociability) (C57BL/6 wild-type mice [4]; [6]): spent more time interacting with the stranger mouse than with the empty cage

Substance: siRNA to nNOS: RNA (5-3) CCUUGUCCAACAUGCUCCUAGAGAU (SEQ ID NO: 4) silencing nNOS (CCUUGUCCAACAUGCUCCUAGAGAU; listed as RNA, chemistry not given here)
synaptophysin protein expression (immunofluorescence) (SHSY-5Y cells; nNOS knockdown in the SHANK3 si-RNA group (double knockdown)): recovery in synaptophysin protein expression
nitrotyrosine production (immunofluorescence) (SHSY-5Y cells; nNOS silencing in the SHANK3 si-RNA group (double knockdown)): reduction in nitrotyrosine production
